# Test system: tomato seedlings (Solanum lycopersicum cv. Moneymaker)
# Experiment: Root growth assay on ½MS media containing ABA
# Assay type: in vivo
# Conditions: wild type tomato; 0, 5, 10 or 40 μM ABA; root length seven days after transfer, relative to medium without ABA
# Experimental: Seeds were sterilized as described above and sown in water containing […]. After radicle protrusion ten seeds of each line were placed on ½MS media containing either 0, 5, 10, or 40 μM ABA. The roots were measured and the plates were placed in vertical position and grown under conditions described above. Seven days after transfer the length of the root was measured again and root growth was calculated as a percentage of root growth compared to ½MS media without ABA (100%). Experiments were carried out three times and mean values plus SD are shown. Student's t-tests were performed to test for significance (p<0.05).
compound,measurement,value
"CC1=CC(=O)CC(C)(C)[C@@]1(O)/C=C/C(C)=C\C(=O)O [ABA, abscisic acid]",root growth after germination,reduced

# Source: patent US9532520B2, “Drought tolerant plants” (NUNHEMS B.V., priority 2009, dated 2017)
